Laboratory results: paper PMC3189933, “Acylpeptide Hydrolase Inhibition as Targeted Strategy to Induce Proteasomal Down-Regulation” (PLoS ONE, 2011)

How the values were obtained:
[1] = test system: caspase-3 in Caco-2 cells; test: Caspase-3 activity in Caco-2 cells; format: cell-based, human; settings: 48 h
Method: The pro-apoptotic ability of the peptides and the CLA isomers were assayed by measuring the caspase-3 and caspase-8 activities using fluorometric kits, according to the manufacturer instructions. These assays were based on hydrolysis of the substrate acetyl-Asp-Glu-Val-Asp-7-amido-4-methylcoumarin (Ac-DEVD-AMC) or acetyl-Ile-Glu-Thr-Asp-7-amino-4-methyl coumarin (Ac-IETD-AMC) by caspase-3 and caspase-8, respectively. The release of the 7-AMC moiety in protein extracts prepared from the differently treated cells was evaluated by fluorimetry (excitation 360 nm, emission 460 nm). Their amounts were calculated by means of a standard curve prepared with pure AMC, and following normalisation for protein content, the activities were expressed as nmoles AMC/mg protein/min.

[2] = test system: APEHSs; test: Inhibition of S. solfataricus APEH (APEHSs), Ac-Leu-pNA substrate; format: biochemical, Sulfolobus solfataricus
Method: APEH activity was expressed in IU.
Protease inhibitor activities of the SsCEI peptides and the CLA isomers were carried out using a fixed amount of APEH or partially purified proteasome (3–5 nM and 0.12 mg/mL, respectively), and increasing the SsCEI and CLA isomer concentrations. Mixtures were pre-incubated for 30 min at 37°C before the addition of the substrate, and the enzymatic activities were followed as described above. Protease inhibitor activities of the SsCEI peptides and the CLA isomers were determined towards APEHSs. The protease and increasing concentrations of the inhibitors were mixed and preincubated for 30 min at 80°C before the addition of the specific substrate. The residual enzymatic activity was determined using the assay procedure described above.
All data were obtained from triplicate analyses of three different preparations. Data were presented as means ±S.D. Statistical analysis and IC50 values were calculated with the SigmaPlot 10.0 software through a non-linear curve-fitting method and using a simple binding isotherm equation. Groups were compared by Student's t test, and P<0.05 was considered as significant.

[3] = test system: BHK cells; test: Cytotoxicity in BHK cells; format: cell-based, Baby Hamster; settings: 100 µM, 24 h or 48 h; data not shown
Method: The cells were plated in 12-well plates, to a confluence of 60% for the 24-h incubations, and 40% for 48-h exposure to PIs. These treatments were initiated 24-h after the plating of the cells. Phase-contrast images of the cells were taken just before the lysis of the cells for protein analysis, using a Lica DM6000 inverted microscope.

[4] = test system: Caco-2 cells; test: LDH release cytotoxicity assay in Caco-2 cells; settings: 48 h
Method: The release of LDH was used as the marker for cell toxicity [48]. The culture supernatants were sampled at the end of the incubations and centrifuged (4,000×g, 5 min, and 4°C). Aliquots of the clear supernatant (10 µL) were incubated with 190 µL reaction buffer (200 mM Tris/HCl, pH 8.0, 0.7 mM p-iodonitrotetrazolium violet, 50 mM L-lactic acid, 0.3 mM phenazine methoxysulphate, 0.4 mM NAD,) for 30 min at 37°C. Absorbance was measured at 490 nm and the results were expressed as percentages of total LDH release from control cultures treated with 1% (w/v) Triton X-100 and calculated as: [(experimental value - blank value)/(total lysis -blank value)−100].

[5] = test system: APEH in Caco-2 cells; test: APEH activity in Caco-2 cells; settings: differentiated Caco-2 cells, 200 µM, 48 h (maximum effect)
Method: Porcine liver APEH activity was measured spectrophotometrically using the chromogenic substrate acetyl-Ala-pNA (Bachem). The reaction mixture (1 mL) containing pure APEH (38 ng) or an appropriate amount of cell extract in 50 mM Tris-HCl buffer pH 7.5 (Tris Buffer), was preincubated at 37°C for 2 min. Then, 1 mM acetyl-Ala-pNA was added and the release of p-nitroanilide (ε410 = 8800 M-1 cm-1) was measured by recording the absorbance increase at 410 nm on a Cary 100 Scan (Varian) UV/Vis spectrophotometer, equipped with a thermostated cuvette compartment. APEH activity was expressed in IU. The APEHSs activity was measured using acetyl-Leu-pNA (0.1 mM) (Sigma) as substrate. The reaction mixture (1 mL) containing the appropriate amount of enzyme in 25 mM Tris-HCl buffer pH 7.5, was preincubated at 80°C for 2 min. Then, 0.1 mM acetyl-Leu-pNA was added and the release of p-nitroanilide was measured, following the standard assay procedure described above.
Caco-2 cells (ATCC) were cultivated in DMEM supplemented with 10% FBS, 1 mM glutamine and 100 units/mL penicillin-streptomycin at 37°C in a humidified 5% CO2 atmosphere. The cells were studied between passages 12 and 22. The cells were split using trypsin-EDTA solution and plated in 6-well plates at a density of 8×10^4 cells/mL and the medium was replaced every 2–3 days. Under these conditions, the cells reached visual confluence after 7 days and the differentiated stage two weeks later. The differentiated cells were incubated for 48 h with the different substances.
Following the treatments, the BHK and Caco-2 cells were washed three times with ice cold phosphate-buffered saline and collected immediately at 4°C in lysis buffer (1% Triton X-100, 0.1% SDS, 20 mM Tris-HCl, pH 8.0, 150 mM NaCl, 0.5% sodium deoxycholate and complete protease inhibitors [Roche]). The lysates were centrifuged at 10,000×g for 15 min at 4°C. The protein concentrations in the clear supernatants were determined (BCA protein assay reagent kit; Pierce) before their use in enzymatic assays or SDS–PAGE.

SMILES: CCCCC/C=C\C=C\CCCCCCCCC(=O)O [t10c12-CLA, trans10-cis12 CLA]
- caspase-3 activity increase ([1]; 200 µM, vs untreated, P<0.01): about two
- caspase-3 activity, dose response ([1]; increasing concentrations up to 200 µM): improved at increasing doses
- IC50 ([2]; Ac-Leu-pNA 0.1 mM, 25 mM Tris-HCl pH 7.5, pre-incubated 30 min at 80°C, mean ± SD, read-out: IC50 towards APEHSs): 80 ± 2 µM
- Ki ([2]; Lineweaver–Burk equation, Ac-Leu-pNA, read-out: Ki towards APEHSs): 140 ± 20 µM
- inhibition mechanism towards APEHSs ([2]; Michaelis–Menten / Lineweaver–Burk analysis): non-competitive
- cytotoxic effects in BHK cells [3]: without any cytotoxic effects
- toxicity (LDH release) compared with MG132 ([4]; 200 µM SsCEI 4 or t10c12-CLA, 100 µM ebelactone, MG132 10 µM): significantly lower than that observed in culture incubated with MG132
- cytotoxic effect (LDH activity levels) ([4]; up to highest concentration 200 µM): not associated with any cytotoxic effect
- decrease of APEH activity in Caco-2 cells [5]: 50%
